Holding throughout (test): ≥ marks a high value that may be exact or a test limit, other limits are often not marked, values filed in µg/mL are converted to µM
The subject of assay [1] is Staphylococcus epidermidis KCTC 1917.
The subject of assay [2] is Salmonella typhimurium KCTC 1926.
Assay [3] relates to Staphylococcus aureus KCTC 1621.
The test system of assay [4] is Bacillus subtilis KCTC 3068.
Assay [5] relates to Pseudomonas aeruginosa KCTC 1637.
The test system of assay [6] is Escherichia coli KCTC 1682.
In assay [7] the test system is Staphylococcus aureus ATCC 25923.
In assay [8] the test system is Escherichia coli ATCC 25922.
The test system of assay [9] is Klebsiella pneumoniae ATCC 700603.
In assay [10] the test system is Pseudomonas aeruginosa ATCC 9027.
The test system of assay [11] is Acinetobacter baumannii.
In assay [12] the test system is Klebsiella pneumoniae ATCC 13883.
In assay [13] the test system is Klebsiella pneumoniae.
The subject of assay [14] is Bacillus subtilis 168.
Assay [15] relates to Escherichia coli B.
Assay [16] has as its system Salmonella enterica subsp. enterica serovar Typhimurium ATCC 14028.

Values after ≈ are worked out from the molar mass of the structure shown. Values joined by “and” are separate entries in the source; they are usually repeats but may differ in a detail not shown here. Identical values can stand only once. Bounds are passed on as bounds.

By MIC is commonly meant the lowest concentration that inhibits growth of the organism. The low end stands for a more susceptible organism, the high end for a less susceptible organism. For `CC[C@H](C)[C@H](N)C(=O)N[C@@H](CC(C)C)C(=O)N1CCC[C@H]1C(=O)N[C@@H](Cc1c[nH]c2ccccc12)C(=O)N[C@@H](CCCCN)C(=O)N[C@@H](Cc1c[nH]c2ccccc12)C(=O)N[C@@H](CCCCN)C(=O)N[C@@H](Cc1c[nH]c2ccccc12)C(=O)N[C@@H](Cc1c[nH]c2ccccc12)C(=O)N[C@@H](CCCCN)C(=O)N[C@@H](Cc1c[nH]c2ccccc12)C(=O)N[C@@H](CCCN=C(N)N)C(=O)N[C@@H](CCCN=C(N)N)C(N)=O` [ILPWKWKWWKWRR], the minimal inhibitory concentration (MIC) in assay [1] is 5.08 µM (≈ 10 µg/mL); in assay [2] it was 5.08 µM (≈ 10 µg/mL); in [3] it was 2.54 µM (≈ 5 µg/mL); in [4] it was 2.54 µM (≈ 5 µg/mL); in assay [5] it was 5.08 µM (≈ 10 µg/mL); in assay [6], 5.08 µM (≈ 10 µg/mL).

As for `CC[C@H](C)[C@H](N)C(=O)N[C@@H](Cc1cnc[nH]1)C(=O)N[C@@H](CCCCN)C(=O)N[C@@H](CC(C)C)C(=O)N[C@H](C(=O)N[C@@H](CCCCN)C(=O)N[C@@H](CC(C)C)C(=O)N[C@@H](Cc1c[nH]c2ccccc12)C(=O)N[C@@H](CC(C)C)C(=O)N[C@@H](CC(N)=O)C(=O)N[C@@H](CC(C)C)C(=O)NCC(=O)N[C@@H](CCCCN)C(=O)N[C@@H](CCCCN)C(=O)N[C@@H](Cc1ccccc1)C(=O)O)C(C)C` [IHKLVKLWLNLGKKF], the MIC in assay [7] is > 64 µM; in assay [8] it was 64 µM (≈ 118 µg/mL); in [9], 64 µM (≈ 118 µg/mL); in [10], > 64 µM; in [11], ≥ 64 µM.

For the compound `CC(C)C[C@H](NC(=O)[C@H](C)NC(=O)[C@H](CCCN=C(N)N)NC(=O)[C@H](C)NC(=O)[C@H](Cc1c[nH]c2ccccc12)NC(=O)CNC(=O)[C@H](CCCN=C(N)N)NC(=O)[C@@H](N)CCCN=C(N)N)C(=O)N[C@@H](C)C(=O)N[C@@H](Cc1ccccc1)C(=O)N[C@@H](C)C(=O)N[C@@H](Cc1ccccc1)C(=O)NCC(=O)N[C@@H](CCCN=C(N)N)C(N)=O` [RRGWARALAFAFGR], the MIC in assay [7] is > 30 µM; in assay [8] it was 6.6 µM and 15.5 µM; in assay [12], 14.8 µM and 30 µM; in assay [13] it was 1.9 µM (≈ 3.1 µg/mL); in [11] it was 1.8 µM (≈ 2.94 µg/mL).

In the case of `CC(C)C[C@H](NC(=O)[C@H](Cc1ccccc1)NC(=O)[C@H](CCCCN)NC(=O)[C@H](Cc1c[nH]c2ccccc12)NC(=O)[C@H](Cc1c[nH]c2ccccc12)NC(=O)[C@H](Cc1c[nH]c2ccccc12)NC(=O)[C@H](CCCCN)NC(=O)[C@H](Cc1ccccc1)NC(=O)[C@H](CCCN=C(N)N)NC(=O)[C@H](CCCN=C(N)N)NC(=O)[C@@H](N)C(C)C)C(=O)N[C@@H](CCCN=C(N)N)C(=O)N[C@@H](CCCN=C(N)N)C(N)=O` [VRRFKWWWKFLRR], the minimal inhibitory concentration (MIC) in [1] was 0.5 µM (≈ 0.982 µg/mL); in assay [2], 2 µM (≈ 3.93 µg/mL); in [3] it was 1 µM (≈ 1.96 µg/mL); in assay [4], 0.5 µM (≈ 0.982 µg/mL); in [5], 4 µM (≈ 7.85 µg/mL); in [6] it was 2 µM (≈ 3.93 µg/mL).

Consider `CSCC[C@H](NC(=O)[C@H](Cc1cnc[nH]1)NC(=O)[C@H](C)NC(=O)[C@H](CCSC)NC(=O)[C@@H](NC(=O)[C@@H](N)CCCCN)C(C)C)C(=O)N[C@@H](CCCCN)C(N)=O` [KVMAHMK], for which the minimum inhibitory concentration (MIC) in assay [14] and in assay [15] was ≥ 100 µM each time.

Take `CC[C@H](C)[C@H](N)C(=O)NCC(=O)N[C@@H](CCCCN)C(=O)N[C@@H](CCCCN)C(=O)N[C@@H](Cc1ccccc1)C(=O)N[C@@H](CCCCN)C(=O)N[C@@H](CCCN=C(N)N)C(=O)N[C@H](C(=O)N[C@H](C(=O)N[C@@H](CCC(N)=O)C(=O)N[C@@H](CCCN=C(N)N)C(=O)N[C@H](C(=O)N[C@@H](CCCCN)C(=O)N[C@@H](CCCCN)C(=O)N[C@@H](Cc1ccccc1)C(=O)N[C@@H](CC(C)C)C(=O)N[C@@H](CCCN=C(N)N)C(=O)N[C@@H](CC(N)=O)C(=O)N[C@@H](CC(C)C)C(=O)O)[C@@H](C)CC)C(C)C)[C@@H](C)CC` [IGKKFKRIVQRIKKFLRNL]: the minimal inhibitory concentration (MIC) in assay [1] was found to be 2 µM (≈ 4.77 µg/mL); in assay [2] it was 8 µM (≈ 19.1 µg/mL); in assay [3], 4 µM (≈ 9.54 µg/mL); in [4] it was 2 µM (≈ 4.77 µg/mL); in assay [5] it was 8 µM (≈ 19.1 µg/mL); in [6], 8 µM (≈ 19.1 µg/mL).

As to `CC[C@H](C)[C@H](N)C(=O)NCC(=O)N[C@@H](CCCCN)C(=O)N[C@@H](CCCCN)C(=O)N[C@@H](Cc1ccccc1)C(=O)N[C@@H](CCCCN)C(=O)N[C@@H](CCCN=C(N)N)C(=O)N[C@H](C(=O)N[C@H](C(=O)N[C@@H](CCC(N)=O)C(=O)N[C@@H](CCCN=C(N)N)C(=O)N[C@H](C(=O)N[C@@H](CCCCN)C(=O)N[C@@H](CC(=O)O)C(=O)N[C@@H](Cc1ccccc1)C(=O)N[C@@H](CC(C)C)C(=O)N[C@@H](CCCN=C(N)N)C(=O)N[C@@H](CC(N)=O)C(=O)N[C@@H](CC(C)C)C(=O)O)[C@@H](C)CC)C(C)C)[C@@H](C)CC` [IGKKFKRIVQRIKDFLRNL], the MIC is 2 µM (≈ 4.75 µg/mL) in [1]; 2 µM (≈ 4.75 µg/mL) in assay [2]; 4 µM (≈ 9.49 µg/mL) in [3]; 2 µM (≈ 4.75 µg/mL) in assay [4]; 8 µM (≈ 19 µg/mL) in assay [5]; 8 µM (≈ 19 µg/mL) in [6].

Turning to `CC[C@H](C)[C@H](NC(=O)[C@H](C)NC(=O)[C@H](CCCN=C(N)N)NC(=O)[C@H](Cc1ccccc1)NC(=O)[C@@H](NC(=O)[C@H](Cc1cnc[nH]1)NC(=O)[C@H](Cc1cnc[nH]1)NC(=O)[C@H](Cc1ccccc1)NC(=O)[C@@H](N)Cc1ccccc1)[C@@H](C)CC)C(=O)N[C@H](C(=O)N[C@@H](Cc1cnc[nH]1)C(=O)N[C@H](C(=O)NCC(=O)N[C@@H](CCCCN)C(=O)N[C@H](C(=O)N[C@H](C(=O)N[C@@H](Cc1cnc[nH]1)C(=O)N[C@@H](CCCN=C(N)N)C(=O)N[C@@H](CC(C)C)C(=O)N[C@H](C(=O)N[C@H](C(=O)NCC(=O)O)[C@@H](C)O)C(C)C)[C@@H](C)CC)[C@@H](C)O)C(C)C)C(C)C` [FFHHIFRAIVHVGKTIHRLVTG], the minimal inhibitory concentration (MIC) in assay [1] amounted to 1 µM (≈ 2.59 µg/mL); in assay [2], 1 µM (≈ 2.59 µg/mL); in assay [3], 2 µM (≈ 5.17 µg/mL); in assay [4], 2 µM (≈ 5.17 µg/mL); in assay [5], 4 µM (≈ 10.3 µg/mL); in assay [6], 2 µM (≈ 5.17 µg/mL).

`CC[C@H](C)[C@H](N)C(=O)NCC(=O)N[C@@H](CCCCN)C(=O)N[C@@H](CC(C)C)C(=O)N[C@@H](Cc1ccccc1)C(=O)N[C@@H](CCCCN)C(=O)N[C@@H](CCCN=C(N)N)C(=O)N[C@H](C(=O)N[C@H](C(=O)N[C@@H](CCC(N)=O)C(=O)N[C@@H](CCCN=C(N)N)C(=O)N[C@H](C(=O)N[C@@H](CCCCN)C(=O)N[C@@H](CCCCN)C(=O)N[C@@H](Cc1ccccc1)C(=O)N[C@@H](CC(C)C)C(=O)N[C@@H](CCCN=C(N)N)C(=O)N[C@@H](CC(N)=O)C(=O)N[C@@H](CC(C)C)C(=O)O)[C@@H](C)CC)C(C)C)[C@@H](C)CC` [IGKLFKRIVQRIKKFLRNL]: the MIC turned out to be 4 µM (≈ 9.48 µg/mL) in assay [1]; 4 µM (≈ 9.48 µg/mL) in assay [2]; 8 µM (≈ 19 µg/mL) in assay [3]; 4 µM (≈ 9.48 µg/mL) in assay [4]; 8 µM (≈ 19 µg/mL) in assay [5]; 8 µM (≈ 19 µg/mL) in assay [6].

As for `CC[C@H](C)[C@H](NC(=O)[C@H](CCCCN)NC(=O)[C@H](CC(C)C)NC(=O)[C@H](CC(C)C)NC(=O)[C@@H](N)CCCCN)C(=O)N[C@@H](Cc1c[nH]c2ccccc12)C(=O)N[C@@H](Cc1c[nH]c2ccccc12)C(=O)N[C@H](C(=O)N[C@@H](CCCCN)C(=O)N[C@H](C(=O)N[C@@H](CC(C)C)C(=O)N[C@@H](CCCCN)C(N)=O)C(C)C)[C@@H](C)CC` [KLLKIWWIKVLK], the MIC came out at 3.99 µM (≈ 6.25 µg/mL) in assay [1]; 2 µM (≈ 3.13 µg/mL) in assay [2]; 7.97 µM (≈ 12.5 µg/mL) in assay [3]; 7.97 µM (≈ 12.5 µg/mL) in assay [4]; 3.99 µM (≈ 6.25 µg/mL) in assay [5]; 7.97 µM (≈ 12.5 µg/mL) in assay [6].

For the compound `CC(C)C[C@H](NC(=O)[C@H](CCCN=C(N)N)NC(=O)[C@H](CCCN=C(N)N)NC(=O)[C@H](C)NC(=O)[C@H](Cc1c[nH]c2ccccc12)NC(=O)CNC(=O)[C@H](CCCN=C(N)N)NC(=O)[C@@H](N)CCCN=C(N)N)C(=O)N[C@@H](Cc1ccccc1)C(=O)N[C@@H](C)C(=O)N[C@@H](C)C(=O)N[C@@H](Cc1ccccc1)C(=O)NCC(=O)N[C@@H](CCCN=C(N)N)C(=O)N[C@@H](CCCN=C(N)N)C(N)=O` [RRGWARRLFAAFGRR], the MIC in [7] was > 30 µM; in assay [8] it was 11.5 µM and 30 µM; in [12] it was 30 µM (≈ 56.3 µg/mL); in assay [13], 1.8 µM (≈ 3.38 µg/mL); in assay [16] it was 10.6 µM and 30 µM; in [11], 4.8 µM (≈ 9 µg/mL).

Take `CC[C@H](C)[C@H](NC(=O)[C@H](CC(C)C)NC(=O)[C@H](CCCCN)NC(=O)[C@@H](NC(=O)[C@H](CC(C)C)NC(=O)[C@H](CCCN=C(N)N)NC(=O)[C@H](CCCN=C(N)N)NC(=O)[C@@H](NC(=O)[C@H](C)NC(=O)[C@H](CCCCN)NC(=O)[C@H](C)NC(=O)[C@H](CC(C)C)NC(=O)[C@@H](NC(=O)[C@@H](N)CCCN=C(N)N)[C@@H](C)CC)[C@@H](C)O)C(C)C)C(=O)N[C@H](C(=O)N[C@@H](CO)C(=O)NCC(=O)O)C(C)C` [RILAKATRRLVKLIVSG]: the minimum inhibitory concentration (MIC) was > 25 µM in assay [7]; > 25 µM in assay [8]; > 25 µM in assay [9]; > 25 µM in [10]; 25 µM (≈ 47.4 µg/mL) in [11].

The values above are taken from DBAASP.
